# Assay results from article PMC10821532, “Sex and Cross-Sex Testosterone Treatment Alters Gamma-Hydroxybutyrate Acid Toxicokinetics and Toxicodynamics in Rats” (Pharmaceutics, 2024).
# Read-outs that look alike come from different tables or passages of the source.
# Assay: GHB toxicokinetic study, i.v. bolus, plasma and urine up to 8 h, noncompartmental analysis
# Assay type: in vivo, Sprague Dawley rats
# Conditions: rat, iv
# Method: Male and female Sprague Dawley (SD) rats, ovariectomized (OVX) females, and castrated (CST) males were obtained from Charles River (Wilmington, MA, USA) at 8 weeks of age. The animals were housed under controlled temperature and humidity with an artificial 12 h light/dark cycle, and food and water were available ad libitum. The animals were acclimatized for at least one week before experiments. Hormone treatment was conducted by implanting OVX female and CST male rats subcutaneously with 60-day release pellets containing 7.5 mg testosterone or corresponding placebo pellets (Innovative Research of America) at 10 weeks of age. After 21 days of hormone exposure, rats were utilized in toxicokinetic studies. Age-matched male and female rats were used as control groups. Female rats in the estrus stage were selected for the study. Estrus cycle stages of female rats were monitored daily by vaginal lavage smear, as described in previously published literature. The Institutional Animal Care and Use Committee (IACUC) at the University of the Pacific approved all experiments.
# Jugular vein cannulas were surgically implanted under anesthesia with ketamine/xylazine. Cannulas were flushed daily with heparinized saline to maintain patency. Rats were allowed a minimum of 72 h for recovery from surgery before the experiments were conducted. GHB was administered intravenously as a 1000 mg/kg i.v. bolus or 1500 mg/kg iv bolus with or without AR-C155858 (1 mg/kg i.v. bolus) via a jugular vein cannula to the animals at 13 weeks of age (N = 5–7 per group). Rats were dosed in metabolic cages with ad libitum access to water to allow for the concurrent collection of blood and urine samples for up to 8 h. GHB was administered as a 300 mg/mL solution in sterile water, and the time of administration was considered as time 0. AR-C155858 was administered as a 1 mg/mL solution in 10% cyclodextrin in normal saline 5 min after GHB administration. Blood samples (200 μL) were taken from the jugular vein cannula at different time points: 5, 10, 20, 30, 60, 90, 120, 180, 240, 270, 300, and 330 min for 1000 mg/kg and 10, 30, 60, 90, 120, 180, 240, 270, 300, 330, 360, and 390/480 min for 1500 mg/kg bolus with or without AR-C155858. Plasma samples were separated by centrifugation and stored at −20 °C. Urine samples were collected at 120, 240, and 360 min for 1000 mg/kg and 120, 240, and 390/480 min for 1500 mg/kg bolus with or without AR-C155858 post-dose; the total urine volume was determined, and the samples were stored at −20 °C.
# GHB in plasma and urine were quantified using a validated liquid chromatography/tandem mass spectrometry (LC/MS/MS) assay that was described previously. Briefly, for the preparation of plasma standards and quality controls (QCs), 5 μL of GHB-d6 and 5 μL of standard stock solution or QC stock solution were added to 45 μL of blank plasma. For each unknown plasma sample, 5 μL of GHB-d6 was added to 50 μL of plasma. Protein precipitation was then performed by the addition of 800 μL of acetonitrile with 0.1% formic acid, followed by centrifugation at 10,000 rpm for 20 min. 750 μL of the supernatant was transferred to a clean disposable glass tube and evaporated using a MultiVap Nitrogen Evaporator (Organomation, Berlin, MA, USA) under a nitrogen stream. Dried samples were reconstituted in 250 μL of 95:5 double-distilled water—acetonitrile with 0.1% acetic acid. For urine standards and QCs, 25 μL of blank urine, 5 μL of standard or QC stock solution, 5 μL of GHB-d6, and 465 μL of double-distilled water were mixed. For unknown urine samples, 25 μL of the sample was added to 5 μL of GHB-d6 and 470 μL of double-distilled water. The same LC/MS/MS method was used for GHB plasma and urine analyses. LC/MS/MS equipment consisted of an Agilent 1200 series UPLC consisting of an online degasser, binary pump, and autosampler (Agilent Technologies, Santa Clara, CA, USA) connected to a Agilent 6460 Triple Quad Mass Spectrometer. […]
compound,measurement,setting,value
"O=C(O)CCCO [GHB, Γ-hydroxybutyric acid]",clearance,"female, Sprague Dawley, plasma and urine, 1000 mg/kg, 1000 mg/kg GHB iv, intact female (estrus) rats, read-out: CLm – Metabolic clearance",4.1 ± 0.6 mL/min/kg
same,CL renal,"female, Sprague Dawley, plasma and urine, 1500 mg/kg, 1500 mg/kg GHB iv, OVX testosterone placebo rats, read-out: CLR (renal clearance)",3.5 ± 0.5 mL/min/kg
same,CL renal,"female, Sprague Dawley, plasma and urine, 1500 mg/kg, 1500 mg/kg GHB iv, OVX testosterone rats, read-out: CLR (renal clearance)",2.7 ± 1.5 mL/min/kg
same,CL renal,"female, Sprague Dawley, plasma and urine, 1500 mg/kg, 1500 mg/kg GHB iv, intact female (estrus) rats, read-out: CLR (renal clearance)",3.7 ± 1.1 mL/min/kg
same,clearance,"female, Sprague Dawley, plasma, 1000 mg/kg, 1000 mg/kg GHB iv, OVX testosterone placebo rats, read-out: CL - Total clearance",5.5 ± 0.3 mL/min/kg
same,clearance,"female, Sprague Dawley, plasma, 1000 mg/kg, 1000 mg/kg GHB iv, intact female (estrus) rats, read-out: CL - Total clearance",6.8 ± 0.7 mL/min/kg
same,clearance,"female, Sprague Dawley, plasma, 1500 mg/kg, 1500 mg/kg GHB iv, intact female (estrus) rats, read-out: CL (total clearance)",4.7 ± 1.1 mL/min/kg
same,CL renal,"female, Sprague-Dawley, plasma and urine, 1500 mg/kg, 1500 mg/kg GHB + 1mg/kg AR-C 155858 iv, OVX testosterone placebo rats, read-out: CLR (renal clearance)",7 ± 1.4 mL/min/kg
same,clearance,"female, Sprague-Dawley, plasma and urine, 1500 mg/kg, 1500 mg/kg GHB + 1mg/kg AR-C 155858 iv, OVX testosterone placebo rats, read-out: CLm (metabolic clearance)",2.7 ± 0.9 mL/min/kg
same,CL renal,"female, Sprague-Dawley, plasma and urine, 1500 mg/kg, 1500 mg/kg GHB + 1mg/kg AR-C 155858 iv, OVX testosterone rats, read-out: CLR (renal clearance)",7 ± 0.9 mL/min/kg
same,clearance,"female, Sprague-Dawley, plasma and urine, 1500 mg/kg, 1500 mg/kg GHB + 1mg/kg AR-C 155858 iv, OVX testosterone rats, read-out: CLm (metabolic clearance)",2.4 ± 1.3 mL/min/kg
same,CL renal,"female, Sprague-Dawley, plasma and urine, 1500 mg/kg, 1500 mg/kg GHB + 1mg/kg AR-C 155858 iv, intact female (estrus) rats, read-out: CLR (renal clearance)",6.3 ± 1.8 mL/min/kg
same,clearance,"female, Sprague-Dawley, plasma and urine, 1500 mg/kg, 1500 mg/kg GHB + 1mg/kg AR-C 155858 iv, intact female (estrus) rats, read-out: CLm (metabolic clearance)",2.2 ± 0.4 mL/min/kg
same,clearance,"female, Sprague-Dawley, plasma, 1500 mg/kg, 1500 mg/kg GHB + 1mg/kg AR-C 155858 iv, OVX testosterone placebo rats, read-out: CL (total clearance)",9.7 ± 2.1 mL/min/kg
same,clearance,"female, Sprague-Dawley, plasma, 1500 mg/kg, 1500 mg/kg GHB + 1mg/kg AR-C 155858 iv, OVX testosterone rats, read-out: CL (total clearance)",9.4 ± 1.4 mL/min/kg
same,clearance,"female, Sprague-Dawley, plasma, 1500 mg/kg, 1500 mg/kg GHB + 1mg/kg AR-C 155858 iv, intact female (estrus) rats, read-out: CL (total clearance)",8.5 ± 1.9 mL/min/kg
same,clearance,"female, Sprague-Dawley, plasma, 1500 mg/kg, 1500 mg/kg GHB iv, OVX testosterone placebo rats, read-out: CL (total clearance)",5.7 ± 0.9 mL/min/kg
same,CL renal,"male, Sprague Dawley, plasma and urine, 1000 mg/kg, 1000 mg/kg GHB iv, CST testosterone placebo rats, read-out: CLR - Renal clearance",3 ± 0.7 mL/min/kg
same,clearance,"male, Sprague Dawley, plasma and urine, 1000 mg/kg, 1000 mg/kg GHB iv, CST testosterone placebo rats, read-out: CLm – Metabolic clearance",1.6 ± 0.5 mL/min/kg
same,clearance,"male, Sprague Dawley, plasma and urine, 1000 mg/kg, 1000 mg/kg GHB iv, CST testosterone rats, read-out: CLm – Metabolic clearance",2.1 ± 0.4 mL/min/kg
same,CL renal,"male, Sprague Dawley, plasma and urine, 1000 mg/kg, 1000 mg/kg GHB iv, intact male rats, read-out: CLR - Renal clearance",2.2 ± 0.4 mL/min/kg
same,clearance,"male, Sprague Dawley, plasma and urine, 1000 mg/kg, 1000 mg/kg GHB iv, intact male rats, read-out: CLm – Metabolic clearance",2.4 ± 0.5 mL/min/kg
same,CL renal,"male, Sprague Dawley, plasma and urine, 1500 mg/kg, 1500 mg/kg GHB iv, CST testosterone placebo rats, read-out: CLR (renal clearance)",2.9 ± 0.4 mL/min/kg
same,CL renal,"male, Sprague Dawley, plasma and urine, 1500 mg/kg, 1500 mg/kg GHB iv, intact male rats, read-out: CLR (renal clearance)",4.2 ± 1.3 mL/min/kg
same,clearance,"male, Sprague Dawley, plasma, 1000 mg/kg, 1000 mg/kg GHB iv, CST testosterone placebo rats, read-out: CL - Total clearance",4.6 ± 0.8 mL/min/kg
same,clearance,"male, Sprague Dawley, plasma, 1000 mg/kg, 1000 mg/kg GHB iv, CST testosterone rats, read-out: CL - Total clearance",5.3 ± 1 mL/min/kg
same,clearance,"male, Sprague Dawley, plasma, 1000 mg/kg, 1000 mg/kg GHB iv, intact male rats, read-out: CL - Total clearance",4.6 ± 0.8 mL/min/kg
same,clearance,"male, Sprague Dawley, plasma, 1500 mg/kg, 1500 mg/kg GHB iv, intact male rats, read-out: CL (total clearance)",4.8 ± 1.4 mL/min/kg
same,CL renal,"male, Sprague-Dawley, plasma and urine, 1000 mg/kg, 1000 mg/kg GHB iv, CST testosterone rats, read-out: CLR - Renal clearance",3.2 ± 0.9 mL/min/kg
same,CL renal,"male, Sprague-Dawley, plasma and urine, 1500 mg/kg, 1500 mg/kg GHB + 1mg/kg AR-C 155858 iv, CST testosterone placebo rats, read-out: CLR (renal clearance)",5.4 ± 1.1 mL/min/kg
same,clearance,"male, Sprague-Dawley, plasma and urine, 1500 mg/kg, 1500 mg/kg GHB + 1mg/kg AR-C 155858 iv, CST testosterone placebo rats, read-out: CLm (metabolic clearance)",2.5 ± 1.3 mL/min/kg
same,CL renal,"male, Sprague-Dawley, plasma and urine, 1500 mg/kg, 1500 mg/kg GHB + 1mg/kg AR-C 155858 iv, CST testosterone rats, read-out: CLR (renal clearance)",5.6 ± 1.2 mL/min/kg
same,clearance,"male, Sprague-Dawley, plasma and urine, 1500 mg/kg, 1500 mg/kg GHB + 1mg/kg AR-C 155858 iv, CST testosterone rats, read-out: CLm (metabolic clearance)",1.9 ± 0.1 mL/min/kg
same,CL renal,"male, Sprague-Dawley, plasma and urine, 1500 mg/kg, 1500 mg/kg GHB + 1mg/kg AR-C 155858 iv, intact male rats, read-out: CLR (renal clearance)",6.1 ± 0.5 mL/min/kg
same,clearance,"male, Sprague-Dawley, plasma and urine, 1500 mg/kg, 1500 mg/kg GHB + 1mg/kg AR-C 155858 iv, intact male rats, read-out: CLm (metabolic clearance)",2.1 ± 0.3 mL/min/kg
same,CL renal,"male, Sprague-Dawley, plasma and urine, 1500 mg/kg, 1500 mg/kg GHB iv, CST testosterone rats, read-out: CLR (renal clearance)",1.4 ± 0.6 mL/min/kg
same,clearance,"male, Sprague-Dawley, plasma, 1500 mg/kg, 1500 mg/kg GHB + 1mg/kg AR-C 155858 iv, CST testosterone placebo rats, read-out: CL (total clearance)",7.9 ± 1.2 mL/min/kg
same,clearance,"male, Sprague-Dawley, plasma, 1500 mg/kg, 1500 mg/kg GHB + 1mg/kg AR-C 155858 iv, CST testosterone rats, read-out: CL (total clearance)",7.5 ± 1.4 mL/min/kg
same,clearance,"male, Sprague-Dawley, plasma, 1500 mg/kg, 1500 mg/kg GHB + 1mg/kg AR-C 155858 iv, intact male rats, read-out: CL (total clearance)",8.2 ± 0.6 mL/min/kg
same,clearance,"male, Sprague-Dawley, plasma, 1500 mg/kg, 1500 mg/kg GHB iv, CST testosterone placebo rats, read-out: CL (total clearance)",4.9 ± 0.4 mL/min/kg
same,clearance,"male, Sprague-Dawley, plasma, 1500 mg/kg, 1500 mg/kg GHB iv, CST testosterone rats, read-out: CL (total clearance)",3.2 ± 0.7 mL/min/kg
